Measurements taken from publication PMC7821884, “BRAF inhibition protects against hearing loss in mice” (Science Advances, 2020).

How the values were obtained:
[1] = tested on: P3-P4 FVB mouse cochlear explants; conditions: 150 μM, 24 hours
Experimental: Mouse cochlear explants are widely recognized as an alternative to in vivo cochlear models and pragmatic for focused drug screening ([37]). […] Medium-alone, drug-alone, and cisplatin-alone treatments were used as controls.
P3-P4 FVB mouse cochleae were dissected and maintained in culture on filter inserts in six-well plates with 1 ml of growth medium DMEM (12430-054,Gibco Life Technologies), with 1% FBS (16000-044, Gibco Life Technologies), B-27 supplement (200 μl/500 ml; 17504-44, Gibco Life Technologies), N-2 supplement (100 μl/500 ml; 17502-048, Gibco Life Technologies), and ampicillin (50 μg/ml; A5354-10ML, Sigma-Aldrich) both inside and outside the filter (Millicell, PICM03050, Millipore). […] Cochleae were imaged by confocal microscopy, two 160-μm regions from middle turns were photographed, and the number of intact HCs was counted. Two to five independent cochleae were tested for each experimental condition.

P42 FVB mice = assay: Cisplatin-induced hearing loss in adult mice (ABR, OHC counts, pERK); conditions: cisplatin 30 mg/kg i.p., alone or combined with dabrafenib
Experimental: As described in Fig. 4A, baseline auditory brainstem response (ABR) thresholds for P42 FVB mice were established 1 week before experimental procedures. […] Animals were allowed 21 days after cisplatin injection to recover, and final ABR thresholds were recorded.
Ten milligrams of cisplatin (479306, Sigma-Aldrich) powder was dissolved in 10 ml of sterile saline (0.9% NaCl) at 37°C for 40 to 60 min. Cisplatin was administered to FVB mice at 30 mg/kg via intraperitoneal injection. One day before cisplatin injection, mice received 1 ml of saline by subcutaneous injection. To ameliorate dehydration after cisplatin injection, 1 ml of warm saline was injected twice per day for at least 7 days or until body weight started to recover. The cages of cisplatin-treated mice were placed on the heating pad for at least 7 days or until body weight began to recover. Fresh mush food was daily given for at least 7 days.
Compounds were dissolved in a mixture of 10% DMSO, 5% Tween 80 (P1754, Sigma-Aldrich), 40% PEG-E-300 (91462-1KG, Sigma-Aldrich), and 45% 0.9% saline.
ABR in mice was measured for left ears as described previously with minor modifications ([13], [34]). In brief, ABR waveforms were recorded in a sound booth (Industrial Acoustic Company) by using subdermal needles positioned in the skull, below the pinna, and at the base of the tail, and the responses were fed into a low-impedance Medusa digital biological amplifier system (RA4L; TDT; 20-dB gain). At each frequency, the stimulus intensity was reduced from 90 to 0 dB in 10-dB steps to determine the threshold decibel SPL when the electrical response was just above the noise floor. ABR waveforms were averaged in response to 500 tone bursts. The recorded signals were filtered by a band-pass filter from 300 Hz to 3 kHz. Pretreatment ABR recordings of adult FVB mice (aged 6 weeks) were acquired 1 week before all treatments, and posttreatment ABR measurements were recorded 21 days after cisplatin treatment or 14 days after noise exposure. ABR threshold was determined by the presence of any of three or more of the five waveform peaks. […] All thresholds and shifts were determined independently by two experimenters for each mouse. Individual ABR wave 1 amplitudes were measured as the difference between the positive peak and the following negative trough.
Cochleae from adult mice were prepared and examined as described previously ([85], [86]). All images were acquired with a confocal microscope (LSM 700 or 710, Zeiss). Samples were stained with phalloidin (A12379 or A12380, Invitrogen) or with antibodies for other markers. The following primary antibodies were used: anti–myosin VI (1:400; 25-6791; Proteus Bioscience), anti–myosin VIIa ([…];138-1-s, Developmental Studies Hybridoma Bank), anti-Tuj1 (1:250; 801201, BioLegend), anti-pERK (1:400; 9101S, Cell Signaling Technology), or anti-Ctbp2 (1:500; 612044, BD Transduction). Anti-rabbit Alexa Fluor 488 (1:400; A11034) and anti-mouse Alexa Fluor 647 (1:400; A31571) secondary antibodies were purchased from Invitrogen. ProLong gold antifade reagent with 4′,6-diamidino-2-phenylindole (P36941, Invitrogen) was used to counterstain nuclei.

[2] = design: method as in PMID 25665007, PMID 25058905, PMID 23044998; conditions: cisplatin chemotherapy; cited from earlier work
[3] = tested on: P3-P4 FVB mouse cochlear explants; design: method as in PMID 29514916, PMID 9303151; conditions: identical P3 FVB explant model; read-out: IC50, protection from cisplatin in explants; cited from earlier work
HEI-OC1 cell line = assay: Caspase-Glo 3/7 activity screen for protection from cisplatin-induced cell death; type: cell-based, mouse; conditions: HEI-OC1, 50 μM cisplatin, 22 hours
Experimental: An unbiased screen for compounds protective against cisplatin ototoxicity ([12], [13]) was conducted using the immortalized inner ear cell line HEI-OC1 derived from mouse cochlea ([14]). One hundred sixty-two unique small-molecule kinase-specific inhibitors were screened in dose-response mode for protection from 50 μM cisplatin. A caspase-3/7 activity assay was selected to measure apoptosis using a protocol that quantifies a luminescent product derived from the cleavage of caspase-3/7 substrate (Caspase-Glo 3/7 reagent). One hundred percent luminescence was defined by cells treated with cisplatin alone, and 0% was defined by untreated cells (Fig. 1A, fig. S1, table S1, and dataset in the Supplementary Materials).
In these screens, caspase-3 cleavage was chosen as the end point indicating cisplatin-induced apoptosis, because it allowed the inhibition of cell death to be monitored at the level of any molecular target upstream of caspase-3 cleavage in the HEI-OC1 cell line. Cells were plated at a previously optimized concentration of 1600 cells per well in medium without γ-interferon to limit proliferation and tested against 50 μM cisplatin based on a previous dose–response curve. Tested compounds were dissolved in DMSO before addition to medium with a final DMSO concentration of <0.5%. The screens are described in detail in our previous publications ([12], [13]). […]

[4] = cited from earlier work
[5] = design: method as in PMID 25894725, PMID 26655654; conditions: cited from earlier work

Structure (SMILES): N.N.[Cl][Pt][Cl] [cisplatin]
- OHCs that died with cisplatin [1]: ~40%
- survival rate of mice (P42 FVB mice): 50%
- patients with cancer with hearing loss [2]: 40 to 60%

Structure (SMILES): O=C1Cc2c([nH]c3ccc(Br)cc23)-c2ccccc2N1 [kenpaullone]
- IC50 [3]: 0.2 µM

Structure (SMILES): CSCC[C@@H](N)C(=O)O [D-methionine]
- IC50 [3]: 98.4 µM

Structure (SMILES): Cc1ccc(C(=O)Cn2c3c(sc2=N)CCCC3)cc1 [Pifithrin-α]
- IC50 (HEI-OC1 cell line): 7.7 µM

Structure (SMILES): O=S([O-])([O-])=S.[Na+].[Na+] [STS, sodium thiosulfate]
- lowering of incidence of hearing loss ([4]; children with localized standard-risk hepatoblastoma, 6 hours after cisplatin chemotherapy): 48%
- survival of treated patients with disseminated tumors [4]: lowered survival rate

Structure (SMILES): O=c1c2ccccc2[se]n1-c1ccccc1 [ebselen]
- IC50 [3]: 10.8 µM

Structure (SMILES): C[C@@H]1C[C@H]2[C@@H]3CCC4=CC(=O)C=C[C@]4(C)[C@@]3(F)[C@@H](O)C[C@]2(C)[C@@]1(O)C(=O)CO [dexamethasone]
- IC50 [3]: > 0.25 µM
- effectiveness in treating noise ototoxicity [5]: only partially effective
